Results taken from patent US8765746B2 (Millennium Pharmaceuticals, Inc., priority 2010, dated 2014).

How the values were obtained:
Format in all cases: biochemical
[1] = molecular target: T1, PI3Kalpha (Homo sapiens, UniProt P42336); experiment: Human PI3Kα enzyme assay (HTRF); settings: for inhibition at 1.11 µM: read-out: PI3Kalpha % inh; for PI3Kalpha % inh: at 1.11 μM
T1 construct: His (N); host or cells: SF9 insect cells (baculovirus)
How it was run: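 His-tagged p110α co-expressed with p85 in Sf9 cells was reacted for 30 min at room temperature in pH 7.00 Hepes buffer with 10 mM MgCl2. Addition solutions held 25 uM ATP, 3.5 uM di-C8 PI(4,5)P2 and 0.4875 nM enzyme. The reaction was quenched with EDTA/biotin-PIP3 and detected by HTRF (GST-GRP-1 PH domain, streptavidin-XL, Eu anti-GST) after 1 h.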

[2] = molecular target: T2, PI3Kgamma (Homo sapiens, UniProt P48736); experiment: Human PI3K gamma enzyme assay (HTRF, as for PI3K alpha); settings: for inhibition at 1.11 µM: read-out: PI3Kgamma % inh; for PI3Kgamma % inh: at 1.11 μM
T2 construct: His (N); host or cells: SF9 insect cells (baculovirus)
How it was run: (§1)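 N-His p110β/δ co-expressed with untagged p85 in Sf9, p110γ alone. Enzyme 5.25 nM (β), 0.75 nM (δ), 5 nM (γ), with ATP 25 uM and di-C8 PI(4,5)P2 3.5 uM (added-solution levels), pH 7.00, 30 min RT. HTRF read-out: biotin-PIP3, GST-GRP-1 PH domain, Eu anti-GST, streptavidin-XL.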

[3] = molecular target: T3, PI3Kbeta (Homo sapiens, UniProt P42338); experiment: Human PI3K beta enzyme assay (HTRF, as for PI3K alpha); settings: for inhibition at 1.11 µM: read-out: PI3Kbeta % inh; for IC50: read-out: IC50 (inhibit PI3Kbeta); for inhibition at 1.11 µM / PI3Kbeta % inh: at 1.11 μM
T3 construct: His (N); host or cells: SF9 insect cells (baculovirus)
How it was run: as §1

[4] = molecular target: T4, PI3Kdelta (Homo sapiens, UniProt O00329); experiment: Human PI3K delta enzyme assay (HTRF, as for PI3K alpha); settings: for inhibition at 1.11 µM: read-out: PI3Kdelta % inh; for PI3Kdelta % inh: at 1.11 μM
T4 construct: His (N); host or cells: SF9 insect cells (baculovirus)
How it was run: as §1

[5] = molecular target: T5, VPS34 (Homo sapiens, UniProt Q8NEB9); experiment: Human VPS34 enzyme assay (Adapta Universal Kinase Assay); settings: for VPS34 % ihn: at 1.11 μM; for inhibition at 1.11 µM: 1 h, read-out: VPS34 % ihn
T5 construct: GST (N); host or cells: SF9 insect cells (baculovirus)
Experimental: VPS34 (accession number GB:BC033004) is cloned into pDEST20-Thombin as N-terminal GST tagged fusion proteins using the Gateway system (Invitrogen, catalog#11804-013). The sequences are verified before recombinant protein expression using the Baculovirus Expression System with Gateway® Technology.
For expression VPS34 was infected at 1MOI in SF9 cells and harvested 72 hours post infection.
For purification, VPS34 is purified by Glutathione Sepharose 4 Fast Flow (GE Healthcare #17-5132-03) followed by HiTrap Q (GE Healthcare #17-1153-01).
3) VPS34 is assayed using Adapta™ Universal Kinase Assay Kit (Invitrogen).
4) Human VPS34 enzyme assay method
100 mL compounds in DMSO are added to wells of a 384 well microtitre plate (Greiner 780076). At room temperature: 5 ul VPS34 reaction buffer (Invitrogen Assay Buffer Q (diluted 1 in 5 with nanopure water) plus 2 mM DTT and 2 mM MnCl2) containing ATP (20 uM, Promega) and 200 uM PI-PS substrate (Invitrogen PV5122) is added followed immediately by 5 ul VPS34 reaction buffer (as above) containing VPS34 (5 nM, Millennium Protein Sciences Group) and the mixture is incubated with shaking at room temperature for 1 hour. Then 5 ul VPS34 stop-detect mix (as per Invitrogen Adapta Assay kit (PV5009) instructions (contains kinase quench buffer, TR-FRET buffer, Adapta Eu anti-ADP antibody and Alexa Fluor 647 ADP tracer)) is added to quench the reaction. The plates are then incubated for 30 minutes at room temperature with shaking and then read on a BMG PheraStar Plus reader.

T2 sequence (P48736 whole entry): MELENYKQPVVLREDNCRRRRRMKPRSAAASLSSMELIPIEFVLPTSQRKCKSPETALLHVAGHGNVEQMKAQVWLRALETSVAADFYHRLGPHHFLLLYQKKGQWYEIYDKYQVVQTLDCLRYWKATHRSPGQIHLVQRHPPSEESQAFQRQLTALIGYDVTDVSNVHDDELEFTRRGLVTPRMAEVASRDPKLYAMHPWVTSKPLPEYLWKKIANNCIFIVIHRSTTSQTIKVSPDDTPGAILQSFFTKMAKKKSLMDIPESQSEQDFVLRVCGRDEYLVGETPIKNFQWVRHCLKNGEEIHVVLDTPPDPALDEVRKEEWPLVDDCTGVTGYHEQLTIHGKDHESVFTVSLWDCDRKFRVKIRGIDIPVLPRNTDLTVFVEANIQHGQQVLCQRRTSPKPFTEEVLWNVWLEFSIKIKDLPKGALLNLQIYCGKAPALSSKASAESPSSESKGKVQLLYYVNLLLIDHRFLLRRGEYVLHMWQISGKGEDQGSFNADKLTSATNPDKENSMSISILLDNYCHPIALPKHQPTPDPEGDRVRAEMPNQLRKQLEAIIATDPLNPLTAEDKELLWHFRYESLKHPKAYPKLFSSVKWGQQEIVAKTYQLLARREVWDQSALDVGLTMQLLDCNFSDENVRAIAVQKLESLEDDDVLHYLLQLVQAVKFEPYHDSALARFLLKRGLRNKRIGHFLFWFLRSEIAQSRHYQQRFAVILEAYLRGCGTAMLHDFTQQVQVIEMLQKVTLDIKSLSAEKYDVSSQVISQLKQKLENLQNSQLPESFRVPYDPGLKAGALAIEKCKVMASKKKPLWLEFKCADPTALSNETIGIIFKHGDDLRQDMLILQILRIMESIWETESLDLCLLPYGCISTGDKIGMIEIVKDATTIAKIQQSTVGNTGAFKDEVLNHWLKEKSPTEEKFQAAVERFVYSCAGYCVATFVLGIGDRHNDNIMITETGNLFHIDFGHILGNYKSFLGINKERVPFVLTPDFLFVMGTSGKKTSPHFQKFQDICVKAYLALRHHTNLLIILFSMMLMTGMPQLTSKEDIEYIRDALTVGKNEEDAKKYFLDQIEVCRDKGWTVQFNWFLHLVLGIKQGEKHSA
T4 sequence (O00329 whole entry): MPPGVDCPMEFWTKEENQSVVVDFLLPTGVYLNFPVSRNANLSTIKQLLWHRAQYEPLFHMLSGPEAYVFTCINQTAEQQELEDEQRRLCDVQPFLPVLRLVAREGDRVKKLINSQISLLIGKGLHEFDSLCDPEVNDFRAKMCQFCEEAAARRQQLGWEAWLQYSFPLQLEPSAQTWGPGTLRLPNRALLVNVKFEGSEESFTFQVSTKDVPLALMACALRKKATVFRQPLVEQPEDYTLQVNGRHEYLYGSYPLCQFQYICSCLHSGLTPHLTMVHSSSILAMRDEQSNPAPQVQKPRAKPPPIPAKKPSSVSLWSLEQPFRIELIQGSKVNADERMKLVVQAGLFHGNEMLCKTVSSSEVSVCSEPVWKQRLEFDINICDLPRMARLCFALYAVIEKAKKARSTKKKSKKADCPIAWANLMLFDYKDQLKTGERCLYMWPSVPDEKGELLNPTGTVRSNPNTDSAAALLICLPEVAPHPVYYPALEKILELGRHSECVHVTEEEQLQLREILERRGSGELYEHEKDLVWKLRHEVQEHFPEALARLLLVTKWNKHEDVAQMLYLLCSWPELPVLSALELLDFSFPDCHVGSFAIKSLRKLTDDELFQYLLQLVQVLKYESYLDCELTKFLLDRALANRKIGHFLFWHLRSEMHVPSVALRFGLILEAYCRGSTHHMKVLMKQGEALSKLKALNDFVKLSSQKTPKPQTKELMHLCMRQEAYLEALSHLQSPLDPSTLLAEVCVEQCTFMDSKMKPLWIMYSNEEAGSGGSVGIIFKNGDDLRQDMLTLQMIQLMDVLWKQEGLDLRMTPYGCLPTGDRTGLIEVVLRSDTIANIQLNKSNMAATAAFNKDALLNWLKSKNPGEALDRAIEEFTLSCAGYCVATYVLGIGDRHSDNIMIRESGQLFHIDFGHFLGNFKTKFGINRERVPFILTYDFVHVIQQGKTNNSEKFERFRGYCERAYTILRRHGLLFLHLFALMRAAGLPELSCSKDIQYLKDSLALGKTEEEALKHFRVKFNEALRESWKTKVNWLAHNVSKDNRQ
T4 sequence (P27986 whole entry partner): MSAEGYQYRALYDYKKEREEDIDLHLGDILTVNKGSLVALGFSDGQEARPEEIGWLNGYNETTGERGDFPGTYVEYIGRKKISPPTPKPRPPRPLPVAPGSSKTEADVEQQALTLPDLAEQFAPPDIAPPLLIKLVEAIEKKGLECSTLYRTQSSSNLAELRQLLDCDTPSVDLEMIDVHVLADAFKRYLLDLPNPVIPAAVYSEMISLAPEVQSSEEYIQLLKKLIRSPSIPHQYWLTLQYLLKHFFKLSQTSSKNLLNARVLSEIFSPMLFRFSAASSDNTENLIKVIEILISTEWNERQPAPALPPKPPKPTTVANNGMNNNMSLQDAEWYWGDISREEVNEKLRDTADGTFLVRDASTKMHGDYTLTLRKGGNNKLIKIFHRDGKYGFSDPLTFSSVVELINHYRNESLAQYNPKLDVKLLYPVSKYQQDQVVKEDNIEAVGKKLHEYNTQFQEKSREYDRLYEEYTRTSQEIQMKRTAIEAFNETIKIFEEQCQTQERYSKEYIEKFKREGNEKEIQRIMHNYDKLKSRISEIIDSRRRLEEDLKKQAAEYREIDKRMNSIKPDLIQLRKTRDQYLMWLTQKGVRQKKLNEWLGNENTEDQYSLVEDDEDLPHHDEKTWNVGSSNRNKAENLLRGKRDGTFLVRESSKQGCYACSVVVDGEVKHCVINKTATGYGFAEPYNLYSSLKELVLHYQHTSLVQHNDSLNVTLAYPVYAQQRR
T3 sequence (P42338 whole entry): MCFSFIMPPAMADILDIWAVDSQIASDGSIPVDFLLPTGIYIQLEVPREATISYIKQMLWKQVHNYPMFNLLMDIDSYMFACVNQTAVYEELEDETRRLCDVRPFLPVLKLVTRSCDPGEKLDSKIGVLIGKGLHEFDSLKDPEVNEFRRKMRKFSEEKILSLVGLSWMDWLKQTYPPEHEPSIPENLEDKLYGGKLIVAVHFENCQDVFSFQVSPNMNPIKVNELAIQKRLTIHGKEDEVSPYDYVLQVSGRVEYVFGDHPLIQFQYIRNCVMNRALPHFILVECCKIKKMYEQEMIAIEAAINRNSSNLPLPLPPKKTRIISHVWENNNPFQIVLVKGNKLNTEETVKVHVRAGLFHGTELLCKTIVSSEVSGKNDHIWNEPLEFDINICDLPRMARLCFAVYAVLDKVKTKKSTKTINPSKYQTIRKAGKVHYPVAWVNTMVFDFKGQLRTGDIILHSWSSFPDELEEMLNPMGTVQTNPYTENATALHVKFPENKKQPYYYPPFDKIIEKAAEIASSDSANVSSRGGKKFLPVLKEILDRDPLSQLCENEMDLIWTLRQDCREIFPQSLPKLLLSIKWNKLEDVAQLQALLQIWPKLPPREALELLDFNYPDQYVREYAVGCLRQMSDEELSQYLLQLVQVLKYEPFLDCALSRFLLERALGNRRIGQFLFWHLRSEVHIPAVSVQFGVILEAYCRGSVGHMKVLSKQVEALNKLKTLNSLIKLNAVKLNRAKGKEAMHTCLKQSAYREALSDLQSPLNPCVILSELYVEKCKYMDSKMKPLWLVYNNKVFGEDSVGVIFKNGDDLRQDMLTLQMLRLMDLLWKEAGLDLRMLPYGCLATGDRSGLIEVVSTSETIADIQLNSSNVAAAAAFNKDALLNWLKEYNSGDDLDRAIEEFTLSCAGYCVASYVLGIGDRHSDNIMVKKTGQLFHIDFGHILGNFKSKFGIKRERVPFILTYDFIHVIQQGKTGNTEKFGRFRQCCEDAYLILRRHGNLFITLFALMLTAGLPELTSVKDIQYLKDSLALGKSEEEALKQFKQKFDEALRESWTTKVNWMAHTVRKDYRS
T3 sequence (P27986 whole entry partner): as the sequence (P27986 whole entry partner) above
T1 sequence (P42336 whole entry): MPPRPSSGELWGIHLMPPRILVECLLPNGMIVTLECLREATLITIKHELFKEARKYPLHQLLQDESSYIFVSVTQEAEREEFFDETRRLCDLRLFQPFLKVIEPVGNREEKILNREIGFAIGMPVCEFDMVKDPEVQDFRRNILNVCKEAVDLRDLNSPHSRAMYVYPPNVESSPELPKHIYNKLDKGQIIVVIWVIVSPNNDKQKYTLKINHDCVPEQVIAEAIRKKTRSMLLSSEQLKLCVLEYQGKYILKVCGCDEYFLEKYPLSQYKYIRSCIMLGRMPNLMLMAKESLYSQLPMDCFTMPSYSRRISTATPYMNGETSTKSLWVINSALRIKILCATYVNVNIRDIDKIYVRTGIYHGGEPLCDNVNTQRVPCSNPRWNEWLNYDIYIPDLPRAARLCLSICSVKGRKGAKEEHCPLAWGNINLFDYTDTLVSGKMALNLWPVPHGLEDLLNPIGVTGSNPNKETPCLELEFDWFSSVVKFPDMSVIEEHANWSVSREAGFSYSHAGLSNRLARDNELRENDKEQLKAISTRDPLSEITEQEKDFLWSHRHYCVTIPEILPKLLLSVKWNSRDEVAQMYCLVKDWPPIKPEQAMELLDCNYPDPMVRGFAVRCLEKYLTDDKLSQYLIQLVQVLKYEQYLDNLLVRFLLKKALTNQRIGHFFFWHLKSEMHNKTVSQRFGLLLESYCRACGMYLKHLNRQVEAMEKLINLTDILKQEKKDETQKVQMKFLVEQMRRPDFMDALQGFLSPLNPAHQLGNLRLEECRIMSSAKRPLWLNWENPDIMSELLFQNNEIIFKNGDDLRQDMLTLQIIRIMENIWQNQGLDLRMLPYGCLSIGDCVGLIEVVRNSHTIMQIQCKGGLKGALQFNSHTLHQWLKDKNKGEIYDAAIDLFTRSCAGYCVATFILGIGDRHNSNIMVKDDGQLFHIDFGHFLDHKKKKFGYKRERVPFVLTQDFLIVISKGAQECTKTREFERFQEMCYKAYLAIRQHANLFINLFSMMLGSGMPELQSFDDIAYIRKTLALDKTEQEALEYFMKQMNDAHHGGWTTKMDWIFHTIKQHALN
T1 sequence (P27986 whole entry partner): as the sequence (P27986 whole entry partner) above

| Structure (SMILES) | inhibition at 1.11 µM [1] | inhibition at 1.11 µM [2] | inhibition at 1.11 µM [3] | IC50 [3] | inhibition at 1.11 µM [4] | VPS34 % ihn [5] | inhibition at 1.11 µM [5] | PI3Kalpha % inh [1] | PI3Kgamma % inh [2] | PI3Kbeta % inh [3] | PI3Kdelta % inh [4] |
| --- | --- | --- | --- | --- | --- | --- | --- | --- | --- | --- | --- |
| O=C1NCC(c2ccc(Cl)cc2)c2cc(-c3ccncc3)sc21 (centres unmarked) [Compound 30] | 6.3% | 11.2% | 94.9% | < 100 nM | 36% | −0.200% | – | – | – | – | – |
| O=C1NCCCC(c2ccc(Cl)cc2)c2cc(-c3ccncc3)sc21 (centres unmarked) [Compound 31] | 16.6% | 6.9% | 83.3% | 100 to 1000 nM | 50.5% | – | 2% | – | – | – | – |
| O=C1CC(c2ccc(Cl)cc2F)c2cc(N3CCOCC3)sc21 (centres unmarked) [Compound 117] | 26.6% | 35.5% | 101% | – | 81.2% | – | 6.21% | – | – | – | – |
| CN(C)C(=O)[C@@H]1NC(=O)c2sc(N3CCOCC3)cc2[C@H]1c1ccc(Cl)cc1 [Compound 125] | 22.6% | 16.7% | 71.8% | – | 44.5% | – | 24.4% | – | – | – | – |
| NC(=O)[C@@H]1NC(=O)c2sc(N3CCOCC3)cc2[C@H]1c1ccc(Cl)cc1 [Compound 126] | – | – | – | – | – | 26.74% | – | 39.72% | 36.62% | 98.08% | 75.35% |
| O=C1NCC(c2ccc(Cl)cc2)c2cc(N3CCOCC3)sc21 (centres unmarked) [Compound 128] | – | 45.9% | – | – | 87% | – | 36.3% | 18.03% | – | 107.54% | – |
| O=C1CCC(O)C(c2ccc(Cl)cc2)c2cc(-c3ccncc3)sc21 (centres unmarked) [Compound 129] | – | – | – | – | – | −2.80% | – | 2.32% | 3.89% | 59.86% | 26.46% |
| N#Cc1c(N2CCOCC2)sc2c1C(c1ccc(Cl)cc1)NC2=O (centres unmarked) [Compound 134, 4-(4-chlorophenyl)-2-(morpholin-4-yl)-6-oxo-5,6-dihydro-4H-thieno[2,3-c]pyrrole-3-carbonitrile] | 33% | 32.2% | 93.8% | – | 76.5% | – | 9.44% | – | – | – | – |
| CC1(C)CNC(=O)c2sc(-c3ccncc3)cc2C1c1ccc(Cl)cc1 (centres unmarked) [Compound 140, 4-(4-chlorophenyl)-5,5-dimethyl-2-pyridin-4-yl-4,5,6,7-tetrahydro-8H-thieno[2,3-c]azepin-8-one] | 8.99% | 18.1% | 98.3% | – | 67.9% | – | 19.5% | – | – | – | – |
| CN1CCC(c2ccc(Cl)cc2)c2cc(N3CCOCC3)sc2C1=O (centres unmarked) [Compound 141, 4-(4-chlorophenyl)-7-methyl-2-(morpholin-4-yl)-4,5,6,7-tetrahydro-8H-thieno[2,3-c]azepin-8-one] | 4.69% | 6.82% | 77% | – | 47.2% | – | 15.1% | – | – | – | – |
| C[Si](C)(C)CCOCN1CC(O)(c2ccc3ccccc3c2)c2cc(N3CCOCC3)sc2S1(=O)=O (centres unmarked) [Compound 144, 6-(morpholin-4-yl)-4-(2-naphthyl)-2-{[2-(trimethylsilyl)ethoxy]methyl}-3,4-dihydro-2H-thieno[3,2-e][1,2]thiazin-4-ol 1,1-dioxide] | 41.6% | 67.8% | 101% | – | 111% | – | 5.73% | – | – | – | – |
| O=C1CC(c2ccc(Cl)cc2)c2cc(N3CCOCC3)sc21 (centres unmarked) [Compound 145] | – | – | – | – | – | −1.31% | – | 18.36% | 50.45% | 101.66% | 88.59% |
| CC1(C)C(=O)c2sc(-c3ccncc3)cc2C1c1ccc(Cl)cc1 (centres unmarked) [Compound 147, 4-(4-chlorophenyl)-5,5-dimethyl-2-(pyridin-4-yl)-4H-cyclopenta[b]thiophen-6(5H)-one] | 3.15% | 2.45% | 65.7% | – | 9.91% | – | 9.65% | – | – | – | – |
| N#Cc1c(N2CCOCC2)sc2c1C(c1ccc(Cl)cc1)CNC2=O (centres unmarked) [Compound 149] | 46.1% | 29.1% | 108% | – | 80.9% | – | 4.85% | – | – | – | – |
| N#Cc1c(N2CCOCC2)sc2c1C(c1c(F)cc(Cl)cc1F)CCNC2=O (centres unmarked) [Compound 155] | 64.7% | 42.6% | 113% | – | 104% | – | 11.6% | – | – | – | – |

Other lines, results leading:

| inhibition at 1.11 µM [1] | inhibition at 1.11 µM [2] | inhibition at 1.11 µM [3] | IC50 [3] | inhibition at 1.11 µM [4] | VPS34 % ihn [5] | inhibition at 1.11 µM [5] | PI3Kalpha % inh [1] | PI3Kgamma % inh [2] | PI3Kbeta % inh [3] | PI3Kdelta % inh [4] | Structure (SMILES) |
| --- | --- | --- | --- | --- | --- | --- | --- | --- | --- | --- | --- |
| – | – | – | – | – | −0.21% | – | 6.34% | 11.17% | 94.95% | 36.03% | O=C1NCC(c2ccc(Cl)cc2)c2cc(-c3ccncc3)sc21 (centres unmarked) [Compound 156] |
| 12.9% | 65.3% | 108% | – | 100% | – | 5.41% | – | – | – | – | COc1cc(C2CC(=O)c3sc(N4CCOCC4)cc32)ccc1Cl (centres unmarked) [Compound 158] |
| 12.1% | 19.3% | 92.6% | – | 59.3% | – | 10.8% | – | – | – | – | CC1(C)C(=O)c2sc(N3CCOCC3)cc2C1c1ccc(Cl)cc1 (centres unmarked) [Compound 161, 4-(4-chlorophenyl)-5,5-dimethyl-2-morpholino-4H-cyclopenta[b]thiophen-6(5H)-one] |
| -2.24% | 5.01% | 76.8% | – | 14% | – | 8.39% | – | – | – | – | CN1CC(c2ccc(Cl)cc2)c2cc(-c3ccncc3)sc2C1=O (centres unmarked) [Compound 164] |
| 48.1% | 64.4% | 106% | – | 111% | – | 16.8% | – | – | – | – | O=C1CC(c2ccc(Cl)c(Cl)c2)c2cc(N3CCOCC3)sc21 (centres unmarked) [Compound 171] |
| 24.1% | 41.5% | 103% | – | 110% | – | 41.8% | – | – | – | – | O=C1NCCC(c2ccc(Cl)c(Cl)c2)c2nc(N3CCOCC3)sc21 (centres unmarked) [Compound 173] |
| 13.9% | 28.7% | 97.4% | – | 87.3% | – | 55.8% | – | – | – | – | O=C1NCCC(c2ccc(Cl)cc2)c2nc(N3CCOCC3)sc21 (centres unmarked) [Compound 180, 8-(4-chlorophenyl)-2-(morpholin-4-yl)-5,6,7,8-tetrahydro-4H-[1,3]thiazolo[5,4-c]azepin-4-one] |
| 2.99% | 3.51% | 61.2% | – | 48.5% | – | 14% | – | – | – | – | O=C1CC(c2ccc(Cl)cc2)c2cc(-c3ccncc3)sc2N1 (centres unmarked) [Compound 182, 4-(4-chlorophenyl)-2-(pyridin-4-yl)-4,5-dihydrothieno[2,3-b]pyridin-6(7H)-one] |
| 26.9% | 20.6% | 90.4% | – | 60.1% | – | 9% | – | – | – | – | O=C1CC(c2ccc3ccccc3n2)c2cc(N3CCOCC3)sc21 (centres unmarked) [Compound 183] |
| 27.7% | 53.4% | 106% | – | 110% | – | 47.8% | – | – | – | – | O=C1NCCC(c2ccc(Cl)c(Cl)c2)c2cc(N3CCOCC3)sc21 (centres unmarked) [Compound 185, 4-(3,4-dichlorophenyl)-2-(morpholin-4-yl)-4,5,6,7-tetrahydro-8H-thieno[2,3-c]azepin-8-one] |
| 15.1% | 23.3% | 92.3% | – | 74.9% | – | 26.8% | – | – | – | – | O=C1CC(c2cccc(Cl)c2)c2cc(N3CCOCC3)sc21 (centres unmarked) [Compound 186] |
| 102% | 62.3% | 117% | – | 110% | – | 12.9% | – | – | – | – | N#Cc1c(N2CCOCC2)sc2c1C(c1ccc3ccccc3c1)CCNC2=O (centres unmarked) [Compound 188] |
